In PMC10092844, “Inhibition profile of trifludimoxazin towards PPO2 target site mutations” (Pest Management Science, 2022):
Like-named read-outs stand apart in the source and are kept apart here.

Columns and labels:
PPO2 wild-type = PPO2 wild-type (Amaranthus tuberculatus, UniProt Q0NZW9); assay: in vitro inhibition assay, recombinant PPO2 enzyme; type: biochemical
E. coli hemG strain = assay: E. coli hemG growth assay (strain sensitivity); type: cell-based, Escherichia coli; details: data not shown; probably impaired uptake or hydrolysis
[1] = target: T1, PPO2 wild-type in Escherichia coli hemG (Amaranthus tuberculatus, UniProt Q0NZW9); type: cell-based; details: read-out: IC50 (E. coli hemG growth)
T1 sequence (Q0NZW9 31-534): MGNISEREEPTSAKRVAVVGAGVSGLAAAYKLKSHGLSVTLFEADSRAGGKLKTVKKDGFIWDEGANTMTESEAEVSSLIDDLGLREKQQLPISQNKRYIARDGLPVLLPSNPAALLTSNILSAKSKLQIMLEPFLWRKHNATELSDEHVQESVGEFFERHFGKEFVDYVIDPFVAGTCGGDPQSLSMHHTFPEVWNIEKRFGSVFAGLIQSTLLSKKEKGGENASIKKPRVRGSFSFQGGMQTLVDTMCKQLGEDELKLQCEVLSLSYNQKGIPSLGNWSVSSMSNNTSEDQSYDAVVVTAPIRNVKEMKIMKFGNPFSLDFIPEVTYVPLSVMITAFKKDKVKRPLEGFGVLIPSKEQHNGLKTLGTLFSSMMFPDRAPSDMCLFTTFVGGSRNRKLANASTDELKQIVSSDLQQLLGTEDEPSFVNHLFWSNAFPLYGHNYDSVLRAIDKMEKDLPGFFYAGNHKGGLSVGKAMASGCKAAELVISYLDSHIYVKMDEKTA

[2] = target: T2, PPO2 ΔG210 in Escherichia coli hemG (Amaranthus tuberculatus, UniProt Q0NZW9, DEL210-210, cells depend on it); type: cell-based; details: read-out: IC50 (E. coli hemG growth)
T2 sequence (Q0NZW9 with tags, fused parts or gaps DEL210-210): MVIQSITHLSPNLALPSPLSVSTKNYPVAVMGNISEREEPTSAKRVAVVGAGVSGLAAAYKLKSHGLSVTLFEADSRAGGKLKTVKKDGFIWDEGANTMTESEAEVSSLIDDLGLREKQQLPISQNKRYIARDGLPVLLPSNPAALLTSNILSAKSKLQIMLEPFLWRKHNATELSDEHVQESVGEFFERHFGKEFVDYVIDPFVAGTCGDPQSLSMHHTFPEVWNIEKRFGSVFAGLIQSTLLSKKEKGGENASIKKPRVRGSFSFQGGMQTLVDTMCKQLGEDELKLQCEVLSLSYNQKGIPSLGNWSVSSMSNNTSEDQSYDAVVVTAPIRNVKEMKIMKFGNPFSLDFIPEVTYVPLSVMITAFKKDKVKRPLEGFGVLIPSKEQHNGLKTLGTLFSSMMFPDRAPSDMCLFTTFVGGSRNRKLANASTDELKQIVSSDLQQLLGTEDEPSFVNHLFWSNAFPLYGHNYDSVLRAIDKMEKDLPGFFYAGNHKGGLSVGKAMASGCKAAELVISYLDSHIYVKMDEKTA

[3] = system: T1 35S::AMATU PPO2 R128A ΔG210 Arabidopsis lines; assay: herbicide treatment of transgenic Arabidopsis T1 lines; type: in vivo, Arabidopsis thaliana; details: foliar-applied 2×, 1×, 0.5× field dose, 7 days after treatment
[4] = system: T1 35S::AMATU PPO2 R128M ΔG210 Arabidopsis lines; assay: as above; type: in vivo, Arabidopsis thaliana; details: foliar-applied 2×, 1×, 0.5× field dose, 7 days after treatment
[5] = system: T1 35S::AMATU PPO2 R128I ΔG210 Arabidopsis lines; assay: as above; type: in vivo, Arabidopsis thaliana; details: foliar-applied 2×, 1×, 0.5× field dose, 7 days after treatment
[6] = system: T1 35S::AMATU PPO2 R128N ΔG210 Arabidopsis lines; assay: as above; type: in vivo, Arabidopsis thaliana; details: foliar-applied 2×, 1×, 0.5× field dose, 7 days after treatment
[7] = system: T1 35S::AMATU PPO2 R128T ΔG210 Arabidopsis lines; assay: as above; type: in vivo, Arabidopsis thaliana; details: foliar-applied 2×, 1×, 0.5× field dose, 7 days after treatment
[8] = system: PPO1 enzyme carrying A212T mutation; design: method as in PMID 31788953; details: cited from earlier work
[9] = Wild-type PPO2, recombinant protein activity in vitro

Row | Compound | IC50 (PPO2 wild-type; [9]) [nM] | sensitivity of E. coli hemG strain (E. coli hemG strain) | IC50 [1] [nM] | IC50 [2] [nM] | IC50 (PPO2 wild-type; read-out: IC50) [nM] | herbicide efficacy, visual assessment of plant growth [3] | herbicide efficacy, visual assessment of plant growth [4] | IC50 (PPO2 wild-type; Wild-type PPO2, recombinant protein activity in vitro, read-out: IC50) [nM] | herbicide efficacy, visual assessment of plant growth [5] | herbicide efficacy, visual assessment of plant growth [6] | herbicide efficacy, visual assessment of plant growth [7] | inhibition of PPO1 A212T enzyme [8]
1 | CS(=O)(=O)NC(=O)c1cc(Oc2ccc(C(F)(F)F)cc2Cl)ccc1[N+](=O)[O-] [Fomesafen, fomesafen] | 7.13 | not sensitive | – | – | – | – | – | – | – | – | – | –
2 | CCOC(=O)C(C)OC(=O)c1cc(Oc2ccc(C(F)(F)F)cc2Cl)ccc1[N+](=O)[O-] (stereo not shown) [Lactofen, lactofen] | 0.415 | – | 62.4 | 357 | – | – | – | – | – | – | – | –
3 | CC(C)N(C)S(=O)(=O)NC(=O)c1cc(-n2c(=O)cc(C(F)(F)F)n(C)c2=O)c(F)cc1Cl [Saflufenacil, saflufenacil] | – | – | 31.9 | 2120 | 1.89 | two T1 lines expressing R128A ΔG210 showed significant resistance at each applied rate | few T1 plants showed persistent growth with saflufenacil at the 2× and 0.5× rate | – | – | – | – | –
4 | C#CCN1C(=O)C(F)(F)Oc2cc(F)c(-n3c(=O)n(C)c(=S)n(C)c3=O)cc21 [Trifludimoxazin, trifludimoxazin] | – | – | 0.927 | 1.18 | – | reduced plant growth at 2×, 1× and 0.5× the rate of all five T1 plants | reduced by both trifludimoxazin and saflufenacil at 1× | 0.245 | more controlled by trifludimoxazin than saflufenacil at all the used rates | more reduced by trifludimoxazin than saflufenacil at each rate | more reduced by trifludimoxazin than saflufenacil at each rate | fully inhibit
